# From patent US12570603B2, “FABP4/5 inhibitors, methods of use and methods of making” (Novius Therapeutics, LLC, priority 2021, dated 2026)
# Read-outs that look alike come from different tables or passages of the source.
# Legend:
# [1] = Level of B4 in serum and tissues after IP injection or oral gavage; assay type: in vivo, mice
# Procedure: Male CD-1 mice (n=3) were treated with B4 either by IP injections (5 mg/kg) or by oral gavage (10 mg/kg). At times, 3, 6, and 24 hours after treatment, mice were euthanized and serum, liver, adipose, muscle and brain tissues were collected and analyzed to determine level of B4. Untreated mice were used as controls.
# [2] = system: LX-2 cells; assay: Hepatic stellate cells activation assay (αSMA after TGF-β); assay type: cell-based, human; details: B4 0.1 to 5 μM versus untreated cells
# Procedure: LX-2 cells were treated with compound for 6 h. then stimulated with TGF-β ([…]) for additional 24 h. Cells were fixed with 4% paraformaldehyde and immununostained with the fibrosis marker αSMA. Nuclei were stained with Dapi. Images and quantification of positive cells was done using Cytation5 (Agilent).
# [3] = system: MB-231 shC and shF5 cells; assay: Proliferation assay, MB-231 lines expressing control shRNA (shC) or FABP5 shRNA (shF5); assay type: cell-based; details: MB-231 shC vs shF5, different concentrations
# Procedure: (§1) 2000 cells were plated in each well of 96-well plate. The next day cells were treated with compounds and incubated in Incucyte for 4 days. Images taken every 4 hours for the duration of the time were analyzed to calculate percentage of confluency in response to the treatments. Growth inhibition was calculated as 1−(percentage of viable cells out of untreated cells).
# [4] = system: TNBC lines and MCF7; assay: Proliferation assay in multiple TNBC lines and MCF7, MB-231 shF5 as control; assay type: cell-based
# Procedure: as §1
# [5] = system: LX-2 hepatic stellate cells; assay: Lipid uptake assay, Oil Red O staining of lipid droplets; assay type: cell-based, human
# Procedure: 1) LX-2: Human LX-2 hepatic stellate cells were treated with compound for 2 days in the presence or absence of 2% lipid mixture (Sigma, USA) in the growth media. Cells were stained with Oil Red O and lipid content was quantified using ImageJ.
# [6] = molecular target: T1, FABP5 (Homo sapiens, UniProt Q01469); assay: FABP binding assay by fluorescence titration (ANS competition)
# T1 construct: made in house
# Procedure: (§2) This example illustrates a binding assay study used to determine the binding affinity of the various inhibitor compounds disclosed herein with the various FABPs: FABP3, FABP4, FABP5 and FABP7.
# (§3) Binding assays for FABP3, FABP4, FABP5 and FABP7 were carried out by fluorescence titrations. FABPs were bacterially expressed and purified and the equilibrium dissociation constants (Kd) that characterize their interactions with different compounds were measured by fluorescence competition assays. The method entails two steps as described in e.g., Lin, Q. et al., “Ligand selectivity of the peroxisome proliferator-activated receptor alpha,” Biochemistry 38, 185-190, doi:10.1021/bi9816094 bi9816094 [pii](1999). In the first step, Kd for the association of the protein with the fluorescent fatty acid probe ANS was measured. Protein ([…]) was titrated with ANS from a concentrated solution in DMSO. Ligand binding was monitored by following the increase in the fluorescence of the ligand upon binding to the protein, and Kd for the association of ANS with the each FABP was computed from titration curves as described in e.g., Norris, A. W. & Li, E., “Fluorometric titration of the CRABPs,” Methods Mol Biol 89, 123-139 (1998)). Kds for binding of non-fluorescent ligands were then measured by monitoring their ability to displace ANS in the binding pocket of the protein. Each FABP was pre-complexed with ANS at 1:1 molar ratio and titrated with the different compounds whose binding was reflected by a decrease in probe fluorescence. Kds were extracted from the EC50 of the competition curve and the measured Kd for ANS.
# (§4) Binding assays for FABP3, FABP4, FABP5 and FABP7 were carried out by fluorescence titrations as described in Example 16.
# [7] = molecular target: T2, FABP4 (Homo sapiens, UniProt P15090); assay: as above
# T2 construct: made in house
# Procedure: as §2, §3, §4
# [8] = system: FABP4 together with PPARγ; assay: Transcriptional activation assay in cells overexpressing FABP4, with PPARγ activator rosiglitazone; assay type: cell-based; details: FIG. 7
# Procedure: COS-7 were cultured in 6-well plates and co-transfected with either a luciferase reporter driven by 3 copies of a PPRE and expression vector for either PPARδ, PPARα or PPARγ together with a vector harboring cDNA for β-galactosidase, serving as a transfection control. To test whether FABP4 or FABP5 mediate activation of their cognate receptors PPARγ and PPARδ, respectively, cells were also co-transfected with a plasmid harboring sequence of either FABP4 or FABP5. 18 h post-transfection, cells were placed in a serum-free medium and treated with agonist/compound. 18 h. later, cells were lysed, luciferase activity was assayed (Promega, WI, USA) and corrected for transfection efficiency by the activity of β-galactosidase.
# [9] = system: HepG2 cells; assay: Lipid uptake assay, oleic acid, Nile Red (steatosis model); assay type: cell-based, human; details: OA 1 mM
# Procedure: 2) Hepg2 cells: 5000 cells were plated in 96-well plate. The next day cells were treated with tested compounds for 4 hours and then treated with 1 mM oleic acid for additional 24 hours. Cells were then stained with Nile Red and Dapi and lipid content was quantified using Cytation5 (Agilent).
# 2) Hepg2 cells: 5000 cells were plated in 96-well plate. The next day cells were treated with tested compounds for 4 hours and then treated with 1 mM oleic acid for additional 24 hours. Cells were then stained with Nile Red and Dapi and lipid content was quantified.
# [10] = IP Injection (0.35 μmole/mouse), 3 hr
# [11] = IP Injection (0.35 μmole/mouse), 6 hr
# [12] = IP Injection (0.35 μmole/mouse), 24 hr
# [13] = Oral Gavage (0.71 μmole/mouse), 3 hr
# [14] = Oral Gavage (0.71 μmole/mouse), 6 hr
# [15] = Oral Gavage (0.71 μmole/mouse), 24 hr
# T1 sequence (Q01469 whole entry, species assumed): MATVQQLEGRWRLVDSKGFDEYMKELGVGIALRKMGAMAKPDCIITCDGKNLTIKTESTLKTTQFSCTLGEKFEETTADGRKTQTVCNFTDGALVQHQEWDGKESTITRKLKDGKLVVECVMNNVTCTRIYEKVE
# T2 sequence (P15090 whole entry, species assumed): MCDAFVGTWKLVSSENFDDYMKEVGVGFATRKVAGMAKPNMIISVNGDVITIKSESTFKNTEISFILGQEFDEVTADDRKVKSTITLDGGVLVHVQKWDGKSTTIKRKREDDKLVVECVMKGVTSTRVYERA
smiles,measurement,setting,value
"CC(C)Oc1cc(NC(=O)CSCC(=O)O)c(Cl)cc1Cl [Compound B4, 2-((2-((2,4-dichloro-5-isopropoxyphenyl)amino)-2-oxoethyl)thio)acetic acid]","Drug Concentration, Adipose",[1]; [10],7.98 ± 3.82 µmol/kg
same,"Drug Concentration, Blood",[1]; [10],1910 ± 140 nM
same,"Drug Concentration, Brain",[1]; [10],0.15 ± 0.04 µmol/kg
same,"Drug Concentration, Liver",[1]; [10],7.05 ± 2.0 µmol/kg
same,"Drug Concentration, Muscle",[1]; [10],1.7 ± 0.8 µmol/kg
same,"Drug Concentration, Adipose",[1]; [11],2.45 ± 1.12 µmol/kg
same,"Drug Concentration, Blood",[1]; [11],1370 ± 120 nM
same,"Drug Concentration, Brain",[1]; [11],0.09 ± 0.01 µmol/kg
same,"Drug Concentration, Liver",[1]; [11],3.45 ± 1.49 µmol/kg
same,"Drug Concentration, Muscle",[1]; [11],1.07 ± 0.8 µmol/kg
same,"Drug Concentration, Adipose",[1]; [12],0.013 ± 0.006 µmol/kg
same,"Drug Concentration, Blood",[1]; [12],5.4 ± 2 nM
same,"Drug Concentration, Brain",[1]; [12],0.0003 ± 0.0002 µmol/kg
same,"Drug Concentration, Liver",[1]; [12],0.035 ± 0.016 µmol/kg
same,"Drug Concentration, Muscle",[1]; [12],0.008 ± 0.002 µmol/kg
same,"Drug Concentration, Adipose",[1]; [13],1.41 ± 0.002 µmol/kg
same,"Drug Concentration, Blood",[1]; [13],1240 ± 250 nM
same,"Drug Concentration, Brain",[1]; [13],0.1 ± 0.04 µmol/kg
same,"Drug Concentration, Liver",[1]; [13],8.93 ± 2.2 µmol/kg
same,"Drug Concentration, Muscle",[1]; [13],1.33 ± 0.74 µmol/kg
same,"Drug Concentration, Adipose",[1]; [14],1.38 ± 0.05 µmol/kg
same,"Drug Concentration, Blood",[1]; [14],980 ± 500 nM
same,"Drug Concentration, Brain",[1]; [14],0.09 ± 0.04 µmol/kg
same,"Drug Concentration, Liver",[1]; [14],6.47 ± 2.3 µmol/kg
same,"Drug Concentration, Muscle",[1]; [14],0.95 ± 0.45 µmol/kg
same,"Drug Concentration, Adipose",[1]; [15],0.11 ± 0.05 µmol/kg
same,"Drug Concentration, Blood",[1]; [15],7.2 ± 2 nM
same,"Drug Concentration, Brain",[1]; [15],0.0009 ± 0.0007 µmol/kg
same,"Drug Concentration, Liver",[1]; [15],0.035 ± 0.013 µmol/kg
same,"Drug Concentration, Muscle",[1]; [15],0.014 ± 0.018 µmol/kg
same,clearance from serum and tissues,"[1]; male CD-1 mice, IP 5 mg/kg or oral gavage 10 mg/kg, after 24 hours",cleared from the serum and tissues
same,levels of α-SMA following activation by TGF-β,[2],significantly lower than in untreated cells
same,"TNBC cell growth, shC versus shF5",[3],suppressed TNBC cell growth only in the cells highly expressing FABP5
same,growth inhibition of TNBC lines by FABP5 level,[4],inhibited growth of only TNBC lines expressing high FABP5 levels
same,amount of lipid droplets (Oil Red O),"[5]; B4 alone, activated LX-2 cells",increased the amount of LD in the cells
same,lipid droplet size,[5]; co-treatment with 2% lipid mix and B4,increases the LD size even more
same,Kd,"[6]; FIG. 1A/1B, read-out: binding affinity towards FABP5 (Kd)",< 1 µM
same,Kd,"[6]; fluorescence competition with ANS, read-out: FABP5 binding",0.036 µM
same,Kd,"[7]; FIG. 1A/1B, read-out: binding affinity towards FABP4 (Kd)",< 1 µM
same,Kd,"[7]; fluorescence competition with ANS, read-out: FABP4 binding",0.066 µM
same,inhibition of PPARγ activity in cells overexpressing FABP4,[8],inhibit activity of the nuclear receptors only in cells that express the binding proteins
same,uptake of lipids into hepatocytes (Nile Red),[9]; B4 0.1 to 5 μM,prevented uptake of lipids into hepatocytes
same,size of the lipid droplets,[9]; B4 treated cells,significantly smaller droplets
